From EP2809669B1, “FUSED PYRROLEDICARBOXAMIDES AND THEIR USE AS PHARMACEUTICALS” (SANOFI, priority 2012, dated 2013)
Read-outs that look alike come from different tables or passages of the source.

Columns and labels:
hERG channel = target: T1, hERG channel (Homo sapiens, UniProt Q12809); test: Determination of the effect on the hERG channel in CHO cells (whole-cell patch clamp); type: cell-based; details: CHO cells stably expressing hERG, room temperature, read-out: IC50 value [µM] for hERG inhibition
T1 construct: expressed in transfected cells
T1 sequence (Q12809 whole entry): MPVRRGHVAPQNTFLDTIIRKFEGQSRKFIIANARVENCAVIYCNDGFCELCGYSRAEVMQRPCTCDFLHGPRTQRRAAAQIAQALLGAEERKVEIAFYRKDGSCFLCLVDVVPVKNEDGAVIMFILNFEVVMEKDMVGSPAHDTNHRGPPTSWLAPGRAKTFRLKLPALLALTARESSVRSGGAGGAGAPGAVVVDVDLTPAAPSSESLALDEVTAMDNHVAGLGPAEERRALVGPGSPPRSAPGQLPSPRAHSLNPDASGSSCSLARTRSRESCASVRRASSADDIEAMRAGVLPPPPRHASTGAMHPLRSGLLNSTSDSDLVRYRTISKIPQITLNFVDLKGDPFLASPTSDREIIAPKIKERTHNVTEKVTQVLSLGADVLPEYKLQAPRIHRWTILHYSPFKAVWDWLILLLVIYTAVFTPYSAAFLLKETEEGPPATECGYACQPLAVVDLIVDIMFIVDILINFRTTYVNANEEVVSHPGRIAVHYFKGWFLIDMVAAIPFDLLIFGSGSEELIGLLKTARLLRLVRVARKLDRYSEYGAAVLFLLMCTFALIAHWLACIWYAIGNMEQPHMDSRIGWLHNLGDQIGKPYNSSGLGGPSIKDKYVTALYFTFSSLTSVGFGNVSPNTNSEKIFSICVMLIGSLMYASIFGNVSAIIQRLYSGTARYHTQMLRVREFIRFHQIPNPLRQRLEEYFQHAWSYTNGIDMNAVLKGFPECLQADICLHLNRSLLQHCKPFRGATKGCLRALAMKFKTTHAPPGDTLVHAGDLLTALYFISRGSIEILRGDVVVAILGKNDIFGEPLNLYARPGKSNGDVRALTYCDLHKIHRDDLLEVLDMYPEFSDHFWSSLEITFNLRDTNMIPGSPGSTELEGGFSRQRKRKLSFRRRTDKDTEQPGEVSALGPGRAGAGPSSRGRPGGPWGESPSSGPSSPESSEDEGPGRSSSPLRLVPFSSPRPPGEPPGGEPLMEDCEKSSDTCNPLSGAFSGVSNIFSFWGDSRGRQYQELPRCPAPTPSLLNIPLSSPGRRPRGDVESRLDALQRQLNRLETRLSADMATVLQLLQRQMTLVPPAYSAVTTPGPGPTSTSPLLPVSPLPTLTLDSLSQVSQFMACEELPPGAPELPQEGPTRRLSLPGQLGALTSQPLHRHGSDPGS
Experimental: Determination of the effect on the hERG channel in CHO cells
An inhibition of the hERG (human Ether-a-go-go-Related Gene) potassium channel is unwanted because it can lead to dangerous arrhythmias. The effect of compounds of the formula I on the cloned human cardiac hERG channel was evaluated in an in vitro model using a whole-cell patch-clamping technique. CHO (Chinese hamster ovary) cells stably expressing hERG, the potassium channel underlying IKr currents in human hearts, were grown in HAM's F-12 media supplemented with 10 % fetal bovine serum, 1 x penicillin/streptomycin and 500 µg/ml G418 (Invitrogen, Carlsbad, CA, USA) in an atmosphere of 95 % air and 5 % carbon dioxide. Cells used for patch-clamping were seeded on glass or plastic coverslips 12 to 36 hours before use. hERG channel currents were recorded at room temperature using the whole-cell configuration of the patch clamp technique with an Axopatch 200B amplifier (Axon Instruments, Foster City, CA, USA). Briefly, electrodes (3 to 6 MΩ resistance) were fashioned from TW150F glass capillary tubes (World Precision Instruments, Sarasota, FL, USA) and filled with pipette solution (containing 120 mM potassium aspartate, 20 mM potassium chloride, 4 mM adenosine triphosphate disodium salt, 5 mM HEPES, 1 mM magnesium chloride; pH adjusted to 7.2 with potassium hydroxide). hERG currents were initiated by a positive voltage pulse (20 mV) followed by a negative pulse (-40 mV) and were recorded for off-line analyses. Once hERG current from a cell perfused with external solution (containing 130 mM sodium chloride, 5 mM potassium chloride, 2.8 mM sodium acetate, 1 mM magnesium chloride, 10 mM HEPES, 10 mM glucose, 1 mM calcium chloride; pH adjusted to 7.4 with sodium hydroxide) without the test compound, i.e. control solution, was stabilized, the cell was perfused with external solution containing the test compound at specific concentrations. For each concentration from each cell, peak amplitude of the steady-state hERG tail current at -40 mV was measured in picoAmpere (pA). The peak amplitude in pA for each concentration (up to a maximum concentration of 10 µM) was compared with that for the control solution from the same cell and expressed as percent value of the control. From the percent values at multiple concentrations, IC50 values for inhibition of hERG can be determined.

[1] = tested on: atrium of the anesthetized pig; test: Investigation of the refractory period and the left-atrial vulnerability in the anesthetized pig; type: in vivo; details: Sus scrofa, iv; for change in vivo at 0.3 mg/kg / inhibition in vivo at 0.3 mg/kg: 0.3 mg/kg i.v.
Experimental: Investigation of the refractory period and the left-atrial vulnerability in the pig
The compounds were tested for prolongation of the refractory period and antiarrhythmic activity on the atrium of the anesthetized pig as described in Knobloch K. et al., Naunyn-Schmiedeberg's Arch. Pharmacol. 2002, 366, 482-487. Here the anti-arrhythmic action relates to the inhibition of the occurrence of episodes of atrial arrhythmias which are induced by a prematurely placed extra-stimulus (S2) in the left atrium (= left-atrial vulnerability). The prolongation of the refractory period (refractoriness) is expressed as the increase in percent of the value of the refractory period 15 min after the end of administration of the test compound vs. the basal value before administration. Mean values of the prolongation of the refractory period are shown from three rates (150/min, 200/min and 250/min). The values for the inhibition of left atrial vulnerability (inhibition of episodes of arrhythmias) in percent refer to three measurements (three time points) before administration of the test compound vs. at least three measurements during the first hour after administration.
In Table 16, the action of compounds of the formula I from the examples above on the refractory period of the left atrium and their antiarrhythmic activity in the anesthetized pig after intravenous (i.v.) administration of the described dose is shown.

upper airway = test: Effect on upper airway collapsibility in the anesthetized pig (negative pressure challenge); type: in vivo; details: negative pressure -150 mbar
Text: Effect on upper airway collapsibility in the pig Pharmacological efficacy against obstructive apneas was investigated in chloralose-urethane anesthetized pigs (weight range 20 to 35 kg), a large-animal model for obstructive apneas. Negative pressure generated by a negative pressure device was applied with a cannula to the upper part of the trachea for at least three breaths so that the upper airway was exposed to the negative pressure generated by the device. This caused an upper airway collapse as in an obstructive apnea in control animals treated with vehicle only, and in animals of the treatment group before the test compound was administered (baseline situation). Different levels of negative pressure were used to cause a collapse of the upper airway (-50 mbar, -100 mbar and -150 mbar). These negative pressure challenges were repeated several times before vehicle or test compound was given, and at regular intervals after administration of vehicle or test compound. Whether the upper airway was collapsed or open, was judged by airflow measurement and by the tracheal pressure in the cannula inserted into the upper trachea. In case the upper airway was collapsed by the negative pressure, airflow to the negative pressure device was close to zero. As a second parameter tracheal pressure approached the negative pressure generated by the device during upper airway collapse. Test compounds were administered by intravenous bolus injection. After administration of an effective test compound the upper airway was open during the negative pressure challenges, i.e. not collapsed, as indicated by airflow to the negative pressure device and the fact that tracheal pressure now approached atmospheric pressure in the inspiratory phase where upper airway muscles are activated. In vehicle-treated controls upper airway collapse occurred at every negative pressure challenge at -50 mbar, -100 mbar and -150 mbar. In Table 17, the time after administration of compounds of the formula I from the examples above is shown during which no upper airway collapse occurred (time of inhibition of collapsibility) at a negative pressure of -150 mbar. […]

[2] = 100 µg/kg intravenous bolus injection
[3] = 0.25 h, bolus injection, 15 min after end of administration vs. basal value, mean of three rates (150/min, 200/min, 250/min), read-out: % Prolongation of left atrial refractory period
[4] = 1 h, bolus injection, first hour after administration vs. before
[5] = infusion over 1 h, first hour after administration vs. before
[6] = 0.25 h, infusion over 1 h, 15 min after end of administration vs. basal value, mean of three rates (150/min, 200/min, 250/min), read-out: % Prolongation of left atrial refractory period

## CC[C@@H](NC(=O)c1cc(C(=O)N2CCC[C@@H]2C)n2c1COCC2)c1ccc(C(F)(F)F)c(Cl)c1 [16c, 6-((S)-2-Methyl-pyrrolidine-1-carbonyl)-3,4-dihydro-1H-pyrrolo[2,1-c][1,4]oxazine-8-carboxylic acid [(R)-1-(3-chloro-4-trifluoromethyl-phenyl)-propyl]-amide]
hERG channel
  IC50: > 10 µM
[1]; 0.25 h, 0.03 mg/kg i.v., bolus injection, 15 min after end of administration vs. basal value, mean of three rates (150/min, 200/min, 250/min), read-out: % Prolongation of left atrial refractory period
  change in vivo at 0.03 mg/kg: 12%
[1]; 1 h, 0.03 mg/kg i.v., bolus injection, first hour after administration vs. before
  inhibition in vivo at 0.03 mg/kg: 65%

## CCOC(=O)CNC(=O)c1cc(C(=O)N[C@H](CC)c2ccccc2)c2n1CCOC2 [16k, {[8-((R)-1-Phenyl-propylcarbamoyl)-3,4-dihydro-1H-pyrrolo[2,1-c][1,4]oxazine-6-carbonyl]-amino}-acetic acid ethyl ester]
hERG channel
  IC50: > 10 µM
Upper airway; [2]
  Time of inhibition of collapsibility (at -150 mbar): for >240 min

## CC[C@@H](NC(=O)c1cc(C(=O)N[C@H](C)c2ccc(F)cc2)n2c1COCC2)c1ccc(C(F)(F)F)cc1 [16eb, 3,4-Dihydro-1H-pyrrolo[2,1-c][1,4]oxazine-6,8-dicarboxylic acid 6-{[(R)-1-(4-fluoro-phenyl)-ethyl]-amide} 8-{[(R)-1-(4-trifluoromethyl-phenyl)-propyl]-amide}]
hERG channel
  IC50: > 1 µM

## CCOC(=O)[C@H](C)N(C)C(=O)c1cc(C(=O)N[C@H](CC)c2ccccc2)c2n1CCOC2 [16l, (S)-2-{Methyl-[8-((R)-1-phenyl-propylcarbamoyl)-3,4-dihydro-1H-pyrrolo[2,1-c][1,4]oxazine-6-carbonyl]-amino}-propionic acid ethyl ester]
hERG channel
  IC50: > 10 µM
Upper airway; [2]
  Time of inhibition of collapsibility (at -150 mbar): for >120 min

## CC[C@@H](NC(=O)c1cc(C(=O)N2CCC[C@@H]2C)n2c1COCC2)c1cnc(OC)c(Cl)c1 [16b, 6-((S)-2-Methyl-pyrrolidine-1-carbonyl)-3,4-dihydro-1H-pyrrolo[2,1-c][1,4]oxazine-8-carboxylic acid [(R)-1-(5-chloro-6-methoxy-pyridin-3-yl)-propyl]-amide]
hERG channel
  IC50: > 10 µM
[1]; [3]
  change in vivo at 0.3 mg/kg: 21%
[1]; [4]
  inhibition in vivo at 0.3 mg/kg: 91%

## CC[C@@H](NC(=O)c1cc(C(=O)N2CCC[C@@H]2C)n2c1COCC2)c1ccc(C#N)c(Cl)c1 [16d, 6-((S)-2-Methyl-pyrrolidine-1-carbonyl)-3,4-dihydro-1H-pyrrolo[2,1-c][1,4]oxazine-8-carboxylic acid [(R)-1-(3-chloro-4-cyano-phenyl)-propyl]-amide]
hERG channel
  IC50: > 10 µM
[1]; [3]
  change in vivo at 0.3 mg/kg: 24%
[1]; [4]
  inhibition in vivo at 0.3 mg/kg: 100%

## CC[C@@H](NC(=O)c1cc(C(=O)N2CCC[C@@H]2C)n2c1COCC2)c1ccc(C(F)(F)F)cc1 [16f, 6-((S)-2-Methyl-pyrrolidine-1-carbonyl)-3,4-dihydro-1H-pyrrolo[2,1-c][1,4]oxazine-8-carboxylic acid [(R)-1-(4-trifluoromethyl-phenyl)-propyl]-amide]
[1]; 0.25 h, 1.0 mg/kg i.v., bolus injection, 15 min after end of administration vs. basal value, mean of three rates (150/min, 200/min, 250/min), read-out: % Prolongation of left atrial refractory period
  change in vivo at 1 mg/kg: 19%
[1]; 1 h, 1.0 mg/kg i.v., bolus injection, first hour after administration vs. before
  inhibition in vivo at 1 mg/kg: 73%

## CC[C@@H](NC(=O)c1cc(C(=O)N2CCC[C@@H]2C(F)(F)F)n2c1COCC2)c1ccc(C(F)(F)F)nc1 [16o, 6-((R)-2-Trifluoromethyl-pyrrolidine-1-carbonyl)-3,4-dihydro-1H-pyrrolo[2,1-c][1,4]oxazine-8-carboxylic acid [(R)-1-(6-trifluoromethyl-pyridin-3-yl)-propyl]-amide]
[1]; [3]
  change in vivo at 0.3 mg/kg: 45%
[1]; [4]
  inhibition in vivo at 0.3 mg/kg: 71%

## CC[C@@H](NC(=O)c1cc(C(=O)N2CCC[C@@H]2C)n2c1COCC2)c1ccc(Cl)c(Cl)c1 [16ci, 6-((S)-2-Methyl-pyrrolidine-1-carbonyl)-3,4-dihydro-1H-pyrrolo[2,1-c][1,4]oxazine-8-carboxylic acid [(R)-1-(3,4-dichloro-phenyl)-propyl]-amide]
hERG channel
  IC50: ~10 µM

## CC[C@@H](NC(=O)c1cc(C(=O)N2CCC[C@@H]2C)n2c1COCC2)c1ccccc1 [16a, 6-((S)-2-Methyl-pyrrolidine-1-carbonyl)-3,4-dihydro-1H-pyrrolo[2,1-c][1,4]oxazine-8-carboxylic acid ((R)-1-phenyl-propyl)-amide]
hERG channel
  IC50: > 10 µM
[1]; [5]
  inhibition in vivo at 0.3 mg/kg: 91%
[1]; [6]
  change in vivo at 0.3 mg/kg: 40%

## CC[C@@H](NC(=O)c1cc(C(=O)N[C@H](CC)c2ccccc2)n2c1COCC2)c1ccccc1 [16i, 3,4-Dihydro-1H-pyrrolo[2,1-c][1,4]oxazine-6,8-dicarboxylic acid bis-[((R)-1-phenylpropyl)-amide]]
hERG channel
  IC50: > 10 µM
Upper airway; 10 µg/kg intravenous bolus injection
  Time of inhibition of collapsibility (at -150 mbar): for 90 min

## CC[C@@H](NC(=O)c1cc(C(=O)N2CCC[C@@H]2C(=O)OC(C)C)n2c1COCC2)c1ccccc1 [16n, (R)-1-[8-((R)-1-Phenyl-propylcarbamoyl)-3,4-dihydro-1H-pyrrolo[2,1-c][1,4]oxazine-6-carbonyl]-pyrrolidine-2-carboxylic acid isopropyl ester]
hERG channel
  IC50: > 10 µM
Upper airway; [2]
  Time of inhibition of collapsibility (at -150 mbar): for 120 min

## CC[C@@H](NC(=O)c1cc(C(=O)N[C@H](C)c2ccc(F)cc2)n2c1COCC2)c1ccc(C(F)(F)F)nc1 [16g, 3,4-Dihydro-1H-pyrrolo[2,1-c][1,4]oxazine-6,8-dicarboxylic acid 6-{[(R)-1-(4-fluorophenyl)-ethyl]-amide}8-{[(R)-1-(6-trifluoromethyl-pyridin-3-yl)-propyl]-amide}]
hERG channel
  IC50: > 10 µM

## CC[C@@H](NC(=O)c1cc(C(=O)N2CCC[C@@H]2C)n2c1COCC2)c1ccc(C(F)(F)F)nc1 [16e, 6-((S)-2-methyl-pyrrolidine-1-carbonyl)-3,4-dihydro-1H-pyrrolo[2,1-c][1,4]oxazine-8-carboxylic acid [(R)-1-(6-trifluoromethyl-pyridin-3-yl)-propyl]-amide]
hERG channel
  IC50: > 10 µM
[1]; [5]
  inhibition in vivo at 0.3 mg/kg: 84%
[1]; [6]
  change in vivo at 0.3 mg/kg: 38%
